This is an account of results in patent publication US8263575B2, “Phosphoramidate derivatives of nucleoside compounds for use in the treatment of cancer” (Nucana Biomed Limited, priority 2005, dated 2012).

Holding throughout (type): cell-based
For one test, the system named is NB4 leukemia cell line. The test can be described thus: MTS assay (CellTiter96 Aqueous One solution proliferation assay), NB4. On the procedure:
(§1) Compounds CPF203, CPF204, CPF194, CPF210, CPF211, CPF212, CPF218 and CPT2001 were each tested in leukaemic cell lines to assess their anti-cancer efficacy. The compounds were tested using the MTS assay reagents from Promega (CellTiter96 Aqueous One solution proliferation assay). The compounds were tested between 10 μM and 0.002 μM in four fold dilutions.
(§2) The cell lines employed are set out in Tables IA and IB below and are NB4, HL60, NB4R2, K562, KG1, and U937 leukemia cell lines.
(§3) Table IA gives the IC50±standard deviation value for each cell line and compound tested and for all the cell lines together, in μM. Included in Table IA below, as a comparative example, is corresponding cell line data for cladribine. Table IB gives the IC50 value for each cell line and compound tested. Included in Table IB below, as a comparative example, is corresponding cell line data for clofarabine.
For orientation: Tetrazolium dyes change colour on reduction, which living cells bring about.

For the next test, the system named is HL60 leukemia cell line. Briefly: MTS assay (CellTiter96 Aqueous One solution proliferation assay), HL60. The settings on record: Table IA, read-out: IC50 ± standard deviation. On the procedure:
as §1, §2, §3

The test system of another test is NB4R2 leukemia cell line. Briefly: MTS assay (CellTiter96 Aqueous One solution proliferation assay), NB4R2. The following applies: Table IA, read-out: IC50 ± standard deviation. On the procedure:
as §1, §2, §3

For a further test, the system named is KG1 leukemia cell line. The test can be described thus: MTS assay (CellTiter96 Aqueous One solution proliferation assay), KG1. The following applies: Table IA, read-out: IC50 ± standard deviation. On the procedure:
as §1, §2, §3

Another test deals with U937 leukemia cell line. The test can be described thus: MTS assay (CellTiter96 Aqueous One solution proliferation assay), U937. On the procedure: as §1, §2, §3
For another test, the system named is leukaemic cell lines. The test can be described thus: MTS assay, all the cell lines together. The settings on record: for IC50: All lines, Table IA, read-out: IC50 ± standard deviation, all the cell lines together; for anti-leukaemic potency/activity (in words): data of Table IA. On the procedure:
as §1, §2, §3

For the next test, the system named is K562 leukemia cell line. The test can be described thus: MTS assay (CellTiter96 Aqueous One solution proliferation assay), K562. The following applies: Table IA, read-out: IC50 ± standard deviation. On the procedure:
as §1, §2, §3

Where [1] appears, read: NB4, Table IA, read-out: IC50 ± standard deviation.
Where [2] appears, read: U937, Table IA, read-out: IC50 ± standard deviation.

Read-outs that look alike come from different tables or passages of the source.

As to “2-chloro-2′-deoxyadenosine-5′-[phenyl-(methoxy-L-alaninyl)]-phosphate [CPF203]”, the IC50 stood at 1160 ± 40 nM in the test with NB4 leukemia cell line (setting [1]); 6230 ± 1750 nM in the test on HL60 leukemia cell line; 2280 ± 590 nM in the test with NB4R2 leukemia cell line; 2230 ± 690 nM with KG1 leukemia cell line; 1290 ± 910 nM with U937 leukemia cell line (setting [2]); 2640 ± 2090 nM with leukaemic cell lines.

As to `C[C@H](NP(=O)(OC[C@H]1O[C@@H](n2cnc3c(Cl)nc(N)nc32)C[C@@H]1O)Oc1ccccc1)C(=O)OCc1ccccc1` (stereo partly drawn) [CPF194, 2-amino-6-chloropurine-2′-deoxyriboside-5′-[phenyl-(benzoxy-L-alaninyl)]-phosphate], the IC50 in the test on KG1 leukemia cell line and with leukaemic cell lines was 2640 ± 180 nM in each case. Further, the “anti-leukaemic potency/activity (in words)” value in the test on leukaemic cell lines is “anti-leukaemic activity demonstrated”.

As to `C[C@H](NP(=O)(OC[C@H]1O[C@@H](n2cnc3c(N)nc(Cl)nc32)C[C@@H]1O)Oc1ccccc1)C(=O)OCc1ccccc1` (stereo partly drawn) [CPF204, 2-chloro-2′-deoxyadenosine-5′-[phenyl-(benzoxy-L-alaninyl)]-phosphate], the concentration for half-maximal inhibition (IC50) in the test on NB4 leukemia cell line (setting [1]) came to 230 ± 100 nM; in the test with HL60 leukemia cell line, 1750 ± 890 nM; with NB4R2 leukemia cell line, 630 ± 40 nM; with KG1 leukemia cell line it was 670 ± 200 nM; in the test with U937 leukemia cell line (setting [2]) it was 80 ± 10 nM; in the test on leukaemic cell lines it was 670 ± 700 nM.

In the case of `C[C@H](NP(=O)(OC[C@H]1O[C@@H](n2cnc3c(N)nc(Cl)nc32)C[C@@H]1O)Oc1cccc2ccccc12)C(=O)OCc1ccccc1` (stereo partly drawn) [CPF210, 2-chloro-2′-deoxyadenosine-5′-[1-naphthyl-(benzoxy-L-alaninyl)]-phosphate], the IC50 is 240 ± 110 nM with NB4 leukemia cell line (setting [1]); 650 ± 190 nM in the test with HL60 leukemia cell line; 1030 ± 150 nM with NB4R2 leukemia cell line; 2.36 ± 1.57 µM in the test on K562 leukemia cell line; 1800 ± 720 nM in the test with KG1 leukemia cell line; 190 ± 90 nM with U937 leukemia cell line (setting [2]). Besides, the IC50 in the test on leukaemic cell lines was determined as 1040 ± 1020 nM. For the same molecule, the “anti-leukaemic potency/activity (in words)” value in the test with leukaemic cell lines is reported as “greater anti-leukaemic potency than the corresponding compound CPF203”.

As for `C[C@H](NP(=O)(OC[C@H]1O[C@@H](n2cnc3c(N)nc(Cl)nc32)C[C@@H]1O)Oc1cccc2ccccc12)C(=O)OCc1ccccc1` (stereo partly drawn) [CPF211, 2-chloro-2′-deoxyadenosine-5′-[1-naphthyl-(benzoxy-L-alaninyl)]-phosphate], the IC50 in the test with NB4 leukemia cell line (setting [1]) was 430 ± 40 nM; with HL60 leukemia cell line it was 1660 ± 240 nM; in the test with NB4R2 leukemia cell line it was 1180 ± 210 nM; in the test on K562 leukemia cell line, 2.28 ± 1.32 µM; with KG1 leukemia cell line, 2630 ± 1190 nM; in the test on U937 leukemia cell line (setting [2]), 280 ± 30 nM. In addition, in the test on leukaemic cell lines, the IC50 was found to be 1410 ± 1090 nM.

`C[C@H](NP(=O)(OC[C@H]1O[C@@H](n2cnc3c(N)nc(Cl)nc32)C[C@@H]1O)Oc1cccc2ccccc12)C(=O)OCc1ccccc1` (stereo partly drawn) [CPF212, 2-chloro-2′-deoxyadenosine-5′-[1-naphthyl-(benzoxy-L-alaninyl)]-phosphate]: the IC50 in the test with NB4 leukemia cell line (setting [1]) was determined as 230 ± 40 nM; in the test on HL60 leukemia cell line it was 1780 ± 500 nM; with NB4R2 leukemia cell line, 1010 ± 390 nM; with K562 leukemia cell line, 5.8 ± 3.6 µM; in the test on KG1 leukemia cell line it was 1540 ± 440 nM; in the test with U937 leukemia cell line (setting [2]) it was 140 ± 150 nM. The half-inhibitory concentration (IC50) in the test with leukaemic cell lines stood at 1750 ± 2340 nM.

On to `C[C@H](NP(=O)(OC[C@H]1O[C@@H](n2cnc3c(N)nc(Cl)nc32)C[C@@H]1O)Oc1ccc(Cl)c2ccccc12)C(=O)OCc1ccccc1` (stereo partly drawn) [CPF218, 2-chloro-2′-deoxyadenosine-5′-[4-chloro-1-naphthyl-(benzoxy-L-alaninyl)]-phosphate], for which the half-maximal inhibitory concentration (IC50) amounted to 270 ± 30 nM with NB4 leukemia cell line (setting [1]); 1750 ± 760 nM in the test with HL60 leukemia cell line; 1090 ± 40 nM in the test with NB4R2 leukemia cell line; 4.41 ± 0.95 µM in the test on K562 leukemia cell line; 1560 ± 250 nM in the test with KG1 leukemia cell line; 550 ± 440 nM in the test with U937 leukemia cell line (setting [2]). The IC50 in the test on leukaemic cell lines stood at 1600 ± 1470 nM.

As for `C[C@@H](NP(=O)(OCC1OC(n2cnc3c(N)nc(Cl)nc32)C(F)C1O)Oc1ccccc1)C(=O)OCc1ccccc1` (stereo partly shown) [CPT2001], the IC50 in the test on NB4 leukemia cell line is 120 nM; with U937 leukemia cell line (Homo sapiens, U-937), 80 nM. The “anti-cancer activity compared to clofarabine” value with leukaemic cell lines (data of Table IB (NB4, U937)) was “enhanced anti-cancer activity compared to clofarabine”.

In the case of `Nc1nc(Cl)nc2c1ncn2[C@H]1C[C@H](O)[C@@H](CO)O1` [Cladribine, reference compound], the IC50 with NB4 leukemia cell line (setting [1]) amounted to 9390 ± 4250 nM; in the test on HL60 leukemia cell line, 10300 ± 3460 nM; in the test with NB4R2 leukemia cell line, 7810 ± 1640 nM; in the test on KG1 leukemia cell line, 5480 ± 1860 nM; in the test on U937 leukemia cell line (setting [2]), 2080 ± 2750 nM; with leukaemic cell lines, 7210 ± 3690 nM.

Consider `Nc1nc(Cl)nc2c1ncn2[C@@H]1O[C@H](CO)[C@@H](O)[C@@H]1F` [Clofarabine, reference compound], for which the IC50 came to 200 nM in the test on NB4 leukemia cell line (NB4, Table IB, read-out: IC50) and 260 nM in the test with U937 leukemia cell line (U937, Table IB, read-out: IC50).

The IC50 is the point on the concentration scale where inhibition reaches its midpoint.
